Assay [1] relates to 3,4-Diaminopyridine Induced Rhythmic Contractions. The assay is described as follows: Effects on 3,4-Diaminopyridine Induced Rhythmic Contractions (isolated coronary artery rings). More on the design: species or system Mongrel dogs. The following applies: Canis lupus familiaris, isolated dog coronary artery rings, 10 mM 3,4-diaminopyridine; for IC50: read-out: IC50 (inhibitory effect on the frequency of the rhythmic contractions); for IC100: read-out: IC100 (inhibitory effect on the frequency of the rhythmic contractions). As for the experimental part: (1) Effects on 3,4-Diaminopyridine Induced Rhythmic Contractions
The experiment was carried out according to the method of Uchida, Sugimoto, et al. (Myakkangaku, 24, 133-143, 1984). Mongrel dogs of either sex were anesthetized with intravenous administration of 30 mg/Kg pentobarbital and were sacrificed by bleeding and then, the heart was excised from each animal. In the Krebs-Henseleit solution, the left circumflex branch or the anterior descending branch was isolated and cut into rings about 2 mm in width. The ring segments were fixed to a stainless-steal hook, and suspended in 37° C. Krebs-Henseleit solution aerated with a mixed gas (95% O2 and 5% CO2) under a tension load of 1.0 g, and isometric contractions were recorded. After the specimen was stabilized for 30 minutes, and rhythmic contractions were induced by treatment with 10 mM 3,4-diamiopyridine. After the amplitude and frequency of rhythmic contractions became substantially steady, a test compound was cumulatively added to the nutritious solution, and the concentration-response curves for the amplitude and frequency of the contractions were constructed and efficacy was evaluated.
[…] (the concentrations required to inhibit the frequency of the rhythmic contractions) of the compounds of this invention are between 0.1 and 10 μM.

The test system of assay [2] is blood pressure. Description: Effects on the Cardiovascular Systems (anesthetized dogs, i.v.). The assay is classed as in vivo, Mongrel dogs. As to conditions: 10 μg/kg i.v. As for the experimental part:
(2) Effects on the Cardiovascular Systems
Mongrel dogs of either sex were anesthetized with intravenous administration of 30 mg/Kg pentobarbital, and after tracheal intubation, the experiments were performed under artificial respiration. After thoracotomy, heart rate, blood pressure, left ventricle pressure, max. dLVP/dt, pulmonary artery pressure, central venous pressure, cardiac output and the coronary artery blood flow were measured. The effects of test compound on these parameters were evaluated by administering it through the cannula indwelt in the femoral vein. The present compounds are effective for lowering blood pressure at a dose of 1 to 1000 μg/kg i.v.

Assay [3] deals with blood pressure. Description: Hypotensive Effect in spontaneously hypertensive rats (oral). The assay is classed as in vivo, Spontaneously hypertensive rats (SHR) of Okamoto-Aoki strain. As to conditions: 300 μg/Kg p.o.; conscious SHR. On the procedure: Spontaneously hypertensive rats (SHR) of Okamoto-Aoki strain were anesthetized with pentobarbital, 60 mg/kg i.p. Then, a cannula for blood pressure measurement was indwelt in the left common carotid artery and the other end of the cannula was led out extracorporeally from the posterior neck. After a stabilization period of 4-5 days, blood pressure and heart rate were measured under freely moving condition.
The test compound was suspended in 0.5% methylcellulose solution and the suspension was orally administered in a volume of 5 ml/Kg and the efficacy was evaluated.

Assay [4] deals with coronary artery. Description: Coronary Vasodilating Effect (anesthetized dogs, intracoronary). As to conditions: i.a.; action of 300 μg papaverine set as 100%. The assay is classed as in vivo, Mongrel dogs. On the procedure:
(3) Coronary Vasodilating Effect
Mongrel dogs of either sex were anesthetized with intravenous administration of 30 mg/Kg pentobarbital.
After tracheal intubation, the experiments was conducted under artificial respiration. After thoracotomy, the left circumflex branch was perfused with the autologous blood derived from the carotid artery at a constant pressure through an extracorporeal circuit. Coronary blood flow was measured with an electromagnetic flow probe installed in the extra-corporeal circuit. The test compound was administered directly into the coronary artery through the extra-corporeal circuit and the coronary vasodilating effects were evaluated.
The dilating action was expressed as percentage with the action of 300 μg papaverine being set as 100%, and the dose required to produce a blood flow increase of 100% (ED100pap) was calculated.

Turning to `CC1(C)CN(c2cccc[n+]2[O-])c2cc3no[n+]([O-])c3cc2O1` [Example 4, 7,8-Dihydro-6,6-dimethyl-8-(2'-pyridyl)-6H-[1,4]oxazino[2,3-f][2,1,3]benzoxadiazole 3,1'-dioxide], in assay [1], the IC50 (commonly the concentration that gives 50% inhibition) was determined as 170 nM and the IC100 turned out to be 1.23 µM. For the same compound, the “MBP (mean blood pressure-lowering effect)” value in assay [2] was -10 Δ%.

Take `CC1(C)CN(c2cccc[n+]2[O-])c2cc3nonc3cc2O1` [Example 2, 2-(7,8-dihydro-6,6-dimethyl-6H-[1,4]oxazino[2,3-f][2,1,3]benzoxadiazol-8-yl)pyridine N-oxide]: the MBP in assay [3] is listed as -45 Δ%. In assay [1], the IC50 turned out to be 150 nM and the IC100 was 0.66 µM. Also, the “ED100PAP (dose required to produce a blood flow increase of 100%)” value in assay [4] turned out to be 3.5 µg. Moreover, the “MBP (mean blood pressure-lowering effect)” value in assay [2] is reported as -33 Δ%.

Values taken from US5278158A, “Oxazinobenzazole compounds” (Yamanouchi Pharmaceutical Co., Ltd., priority 1991, dated 1994).
